Where two headings read alike, the source gives them in different places.
Legend:
[1] = test system: blood platelet aggregation; assay: In vitro test in rabbit: inhibition of U-46619-induced blood platelet aggregation in platelet rich plasma (thromboxane A2 antagonism); format: cell-based, male New Zealand strain house rabbits; conditions: rabbit PRP, U-46619 final concentration 5 μM, 37° C., 3 minutes preincubation, measured for 5 minutes, read-out: IC50 (concentration of the test drug required to bring 50% inhibition to the maximum aggregation rate)
Experimental: Experiment [In Vitro Test in Rabbit]
The remaining blood was centrifuged at 1500 g for 10 minutes to give platelet poor prasma (PPP). Platelet count of PRP was adjusted to 50-60×10^4 /μl by dilution of PRP by PPP.
Namely, a compound of Formula I as a test drug was dissolved in dimethyl sulfoxide and adjusted to the desired concentration with physiological saline solution.

thrombocytopenia = assay: Test of acute thrombocytopenia in mice (U-46619-induced); format: in vivo, male ICR mice; conditions: administered peritoneally 30 seconds prior to U-46619 25 μg/kg caudal vein, platelet count 30 seconds after injection, class by dose giving more than 50% inhibition
Experimental: Experiment 2 [Test of Acute Thrombocytopenia in Mice]
Male ICR mice weighting 25 g were used (7-11 animals for each group).
Thrombocytopenia was induced by injection of an aggregation-inducing substance (U-46619) having thromboxane A2 -like action in amount of 25 μg/kg from the caudal vein. At 30 seconds after injection of U-46619, 20 μl of the blood was collected from the femoral artery, and the platelet counts were immediately measured by means of an automatic blood cell counter (CC-180A, made by Toa Iyoudenshi Co.).
The compound of Formula I was suspended in 5% gum arabic solution and administered peritoneally to the test animals 30 seconds prior to injection of U-46619. As a comparative drug, BM was tested as above.
The inhibition ratio of the thrombocytopenia was calculated by the proportion of the decrease ratio of platelet count of the group treated with the test drug to that of the group with 5% gum arabic solution, and the activity was determined by the following criterion.
+: More than 50% inhibition at a dose of 1.0 mg/kg
++: More than 50% inhibition at a dose of 0.3 mg/kg
+++: More than 50% inhibition at a dose of 0.1 mg/kg

[2] = Oryctolagus cuniculus, Platelet

Compound | IC50 [1] | Activity (inhibition ratio of the thrombocytopenia) (thrombocytopenia) | IC50 [1, 2]
4-[2-(4-Methylsulfonylamino)ethylthio]phenylacetic acid [Compound No. 94] | 3100 nM |  | 
O=C(O)COc1ccc(CCNS(=O)(=O)c2ccccc2)cc1 [BM, 4-[2-(phenylsulfonylamino)ethyl]phenoxyacetic acid, reference compound] |  | + (More than 50% inhibition at a dose of 1.0 mg/kg) | 12000 nM
O=C(O)CCc1ccc(SCCNS(=O)(=O)c2ccc(Cl)cc2)cc1 [Compound No. 52, 3-{4-[2-(4-chlorophenylsulfonylamino)ethylthio]phenyl}propionic acid] |  |  | 1100 nM
Cc1ccc(S(=O)(=O)NCCSc2ccc(CCC(=O)O)cc2)cc1 [Compound No. 53, 3-{4-[2-(4-Methylphenylsulfonylamino)ethylthio]phenyl}propionic acid] |  |  | 5800 nM
O=C(O)CCc1ccc(SCCNS(=O)(=O)c2ccc(F)cc2)cc1 [Compound No. 54, 3-{4-[2-(4-Fluorophenylsulfonylamino)ethylthio]phenyl}propionic acid] |  |  | 2400 nM
O=C(O)CCc1ccc(SCCNS(=O)(=O)c2ccc(Br)cc2)cc1 [Compound No. 55, 3-{4-[2-(4-Bromophenylsulfonylamino)ethylthio]phenyl}propionic acid] |  |  | 1700 nM
CCOC(=O)COc1ccc(CSCCNS(=O)(=O)c2ccc(Cl)cc2)cc1 [Compound No. 63, Ethyl 4-[2-(4-chlorophenylsulfonylamino)ethylthiomethyl]phenoxyacetate] |  |  | 7300 nM
O=C(O)COc1c(F)cc(SCCNS(=O)(=O)c2ccccc2)cc1F [Compound No. 67, 2,6-difluoro-4-[2-(phenylsulfonylamino)ethylthio]phenoxyacetic acid] |  | + (More than 50% inhibition at a dose of 1.0 mg/kg) | 1800 nM
O=C(O)COc1c(F)cc(SCCNS(=O)(=O)c2ccc(Cl)cc2)cc1F [Compound No. 68, 2.6-Difluoro-4-[2-(4-chlorophenylsulfonylamino)ethylthio]phenoxyacetic acid] |  | +++ (More than 50% inhibition at a dose of 0.1 mg/kg) | 300 nM
Cc1ccc(S(=O)(=O)NCCSc2cc(F)c(OCC(=O)O)c(F)c2)cc1 [Compound No. 69, 2,6-Difluoro-4-[2-(4-methylphenylsulfonylamino)ethylthio]phenoxyacetic acid] |  | ++ (More than 50% inhibition at a dose of 0.3 mg/kg) | 540 nM
O=C(O)COc1ccc(SCCNS(=O)(=O)c2ccc(Cl)cc2)cc1F [Compound No. 71, 2-Fluoro-4-[2-(4-chlorophenylsulfonylamino)ethylthio]phenoxyacetic acid] |  | + (More than 50% inhibition at a dose of 1.0 mg/kg) | 1500 nM
O=C(O)COc1ccc(SCCNS(=O)(=O)c2ccc(Cl)cc2)cc1 [Compound No. 74, 4-[2-(4-Chlorophenylsulfonylamino)ethylthio]phenoxyacetic acid] |  |  | 4500 nM
O=C(O)COc1ccc(SCCNS(=O)(=O)c2ccc(Br)cc2)cc1 [Compound No. 78, 4-[2-(4-Bromophenylsulfonylamino)ethylthio]phenoxyacetic acid] |  |  | 5200 nM
O=C(O)Cc1ccc(SCCNS(=O)(=O)c2ccc(Cl)cc2)cc1 [Compound No. 93, 4-[2-(4-Chlorophenylsulfonylamino)ethylthio]phenylacetic acid] |  | + (More than 50% inhibition at a dose of 1.0 mg/kg) | 1500 nM
O=C(O)CCc1ccc(SCCNS(=O)(=O)c2ccc([N+](=O)[O-])cc2)cc1 [Compound No. 103, 3-{4-[2-(4-Nitrophenylsulfonylamino)ethylthio]phenyl}propionic acid] |  |  | 1500 nM
O=C(O)COc1ccc(SCCNS(=O)(=O)c2ccc(F)cc2)cc1F [Compound No. 105, 2-Fluoro-4-[2-(4-fluorophenylsulfonylamino)ethylthio]phenoxyacetic acid] |  |  | 4500 nM
O=C(O)COc1ccc(SCCNS(=O)(=O)c2ccc(Br)cc2)cc1F [Compound No. 106, 2-Fluoro-4-[2-(4-bromophenylsulfonylamino)ethylthio]phenoxyacetic acid] |  |  | 2000 nM
COc1ccc(S(=O)(=O)NCCSc2ccc(OCC(=O)O)c(F)c2)cc1 [Compound No. 107, 2-Fluoro-4-[2-(4-methoxyphenylsulfonylamino)ethylthio]phenoxyacetic acid] |  |  | 7400 nM
O=C(O)Cc1ccc(SCCNS(=O)(=O)c2ccc(F)cc2)cc1 [Compound No. 112, 4-[2-(4-Fluorophenylsulfonylamino)ethylthio]phenylacetic acid] |  |  | 630 nM
O=C(O)Cc1ccc(SCCNS(=O)(=O)c2ccc(Br)cc2)cc1 [Compound No. 113, 4-[2-(4-Bromophenylsulfonylamino)ethylthio]phenylacetic acid] |  |  | 300 nM
COc1ccc(S(=O)(=O)NCCSc2ccc(CC(=O)O)cc2)cc1 [Compound No. 114, 4-[2-(4-Methoxyphenylsulfonylamino)ethylthio]phenylacetic acid] |  |  | 920 nM
O=C(O)Cc1ccc(SCCNS(=O)(=O)c2ccc([N+](=O)[O-])cc2)cc1 [Compound No. 115, 4-[2-(4-Nitrophenylsulfonylamino)ethylthio]phenylacetic acid] |  |  | 930 nM
O=C(O)COc1c(F)cc(SCCNS(=O)(=O)c2ccc(F)cc2)cc1F [Compound No. 119, 2,6-Difluoro-4-[2-(4-fluorophenylsulfonylamino)ethylthio]phenoxyacetic acid] |  |  | 580 nM
O=C(O)COc1c(F)cc(SCCNS(=O)(=O)c2ccc(Br)cc2)cc1F [Compound No. 120, 2,6-Difluoro-4-[2-(4-bromophenylsulfonylamino)ethylthio]phenoxyacetic acid] |  |  | 330 nM
O=C(O)COc1c(F)cc(SCCNS(=O)(=O)c2ccc([N+](=O)[O-])cc2)cc1F [Compound No. 121, 2,6-Difluoro-4-[2-(4-nitrophenylsulfonylamino)ethylthio]phenoxyacetic acid] |  |  | 750 nM
COc1ccc(S(=O)(=O)NCCSc2cc(F)c(OCC(=O)O)c(F)c2)cc1 [Compound No. 125, 2,6-Difluoro-4-[2-(4-methoxyphenylsulfonylamino)ethylthio]phenoxyacetic acid] |  |  | 670 nM

Reference: patent US5189211A, “Sulfonamide derivatives” (Taisho Pharmaceutical Co., Ltd., priority 1990, dated 1993)
